The values below come from patent US20240350430A1, “GROWTH INHIBITOR OF METASTATIC HUMAN PROSTATE CANCER CELLS” (Watanabe Oyster Laboratory Co., Ltd., priority 2021, published 2024).

The subject of the test is PC-3 cells. The test can be described thus: Cell death of sub-confluent PC-3 cells (adherent cell counting). It is filed as cell-based, human. On the procedure: The PC-3 and DU-145 cells (1×10^5/in 1 ml of a culture fluid per hole using a 24-hole plate) were cultured in a DMEM culture fluid (containing 10% of FBS, 1% of P/S, and 1% of fungizone) under 5% of CO2, at 37° C., for three days, and when the cells reached sub-confluence, the culture fluid was exchanged for the one containing the DHMBA (0.01, 0.1, 1, 10, 100, or 1000 μM), and the cells were cultured for 24 and 48 hours. After the culture, the cells adhering to the bottom surface of the dish were removed and counted. In another experiment, after the culture for three days, when the cells reached sub-confluence, the culture fluid was exchanged for a culture fluid containing the DHMBA (1 or 10 μM) and a caspase-3 inhibitor (10 μM), and the cells were counted after the culture for 48 hours. Further, after the culture for three days, when the cells reached sub-confluence, the culture fluid was exchanged for a culture fluid obtained by adding gemcitabine (0.1, 1, 10, 50 or 100 nM) or CH223191 (1, 10, and 25 μM) to a DMEM culture fluid containing the DHMBA (1 or 10 μM) or not containing the DHMBA, and the cells were counted after the culture for 48 hours.
After the culture of the cells, 0.1 ml of 0.05% trypsin-EDTA solution obtained by dissolving the cells adhering to the bottom surface of the culture dish in PBS (Thermo Fisher Scientific, Waltham, MA, USA) not containing Ca^2+/Mg^2+ was added, incubation was performed at 37° C. for two minutes to release the adhering cells, and 0.9 ml of the DMEM culture fluid containing 10% of FBS and 1% of P/S was added to stop the reaction. The visible cells were counted by the Olympus MTV-3 microscope using a hemocytometer (Sigma-Aldrich).
In the drawing, the PC-3 (FIGS. 5(A) and 5(B)) and DU-145 (FIGS. 5(D) and 5(E)) cells (1×10^5/in 1 ml of a culture fluid per hole using a 24-hole plate) were cultured under 5% of CO2, at 37° C., for three days in a DMEM culture fluid (containing 10% of FBS, 1% of P/S, and 1% of fungizone), and when the cells reached sub-confluence, the culture fluid was exchanged for the one containing the DHMBA (0.01, 0.1, 1, 10, 100, or 1000 μM), and the cells were cultured for 24 and 48 hours. In the drawing, after the culture, the cells adhering to the dish were counted.
In another experiment, after the culture for three days, when the cells reached sub-confluence, for the PC-3 (FIG. 5(C)) or DU-145 (FIG. 5(F)) cells, the culture fluid was exchanged for a culture fluid containing the DHMBA (1 or 10 μM) and a caspase-3 inhibitor (10 μM), and the cells were counted after the culture for 48 hours. Further, after the culture for three days, when the cells reached sub-confluence, the culture fluid was exchanged for a culture fluid obtained by adding gemcitabine (0.1, 1, 10, 50 or 100 nM) or CH223191 (1, 10, and 25 μM) to a DMEM culture fluid containing the DHMBA (1 or 10 μM) or not containing the DHMBA, and the cells were counted after the culture for 48 hours. After the culture, the cells adhered to the dish were removed and counted. Each piece of data is shown with a mean value and a standard deviation of values obtained from eight wells of the different cultured cells. *p<0.001, comparison with the control (gray bar). 1-way ANOVA, Tukey-Kramer post-test.
The PC-3 cells (1×10^5/in 1 ml of a culture fluid per hole using a 24-hole plate) were cultured under 5% of CO2, at 37° C., for three days in a DMEM culture fluid (containing 10% of FBS, 1% of P/S, and 1% of fungizone), and when the cells reached sub-confluence, the culture fluid was exchanged for the one containing the gemcitabine (1, 10, 50, 100, or 250 nM), and the cells were cultured for 48 hours. In the drawing, after the culture, the cells adhering to the dish were counted.
After the culture for three days, when the cells reached sub-confluence, the culture fluid was exchanged for a culture fluid containing the DHMBA (1 or 10 μM) and gemcitabine (1, 10, or 100 nM), and the cells were counted after the culture for 48 hours. […]

The structures appear in SMILES notation.

For the compound `COc1c(O)cc(CO)cc1O` [DHMBA, 3,5-dihydroxy-4-methoxybenzyl alcohol], the “cell death inducing effect of DHMBA in the presence of CH223191” value (DHMBA 10 μM with CH223191 1, 10, or 25 μM, 48 hours) was “found not to be expressed”. The cell death entry (DHMBA 1, 10, 100, or 1000 μM, 24 and 48 hours) was “significantly increased”. Moreover, for the setting “DHMBA 1 and 10 μM, 48 hours”, the “cell death inducing action of DHMBA in the presence of gemcitabine 1 or 10 nM” value is recorded as “did not occur” and the “cell death inducing effect of DHMBA in the coexistence of gemcitabine 100 nM” value was “significantly enhanced”. Further, the “increase of cell death in the presence of caspase-3 inhibitor” value (DHMBA 1 or 10 μM with caspase-3 inhibitor 10 μM, 48 hours) is “not caused”.
